Measured values from patent US11020416B2, “Cancer chemotherapy employing halogenated analogs of thymidine” (priority 2015, dated 2021).
Read-outs that look alike come from different tables or passages of the source. Values belong to the molecule of their own block, whether it stands above or below them.

Experiments:
PARP1 [1] = target: T1, PARP1 (Homo sapiens, UniProt P09874); test: Michaelis-Menten kinetic analysis of PARP1 enzymatic activity in solution (FIG. 1); type: biochemical
Protocol: Cloned human PARP-1 (8 nanomolar) was incubated with 100 nanomolar dA/dT, 50 micrograms/milliliter histone Hi and varying concentrations (50, 150, 450 micromolar) of ^32P-NAD^+ in the absence and presence of inhibitor (50 micromolar) at physiological pH (7.3) as described (E. Kirsten, E. Kun, J. Mendeleyev, C. P. Ordahl, Methods in Molecular Biology 287 137 (2004) and Kun, 2004 op cit). Reactions were started by the addition of PARP-1 and incubated for 10 minutes at room temperature after which acid precipitable ^32P was determined.
Target sequence in this assay (P09874 whole entry): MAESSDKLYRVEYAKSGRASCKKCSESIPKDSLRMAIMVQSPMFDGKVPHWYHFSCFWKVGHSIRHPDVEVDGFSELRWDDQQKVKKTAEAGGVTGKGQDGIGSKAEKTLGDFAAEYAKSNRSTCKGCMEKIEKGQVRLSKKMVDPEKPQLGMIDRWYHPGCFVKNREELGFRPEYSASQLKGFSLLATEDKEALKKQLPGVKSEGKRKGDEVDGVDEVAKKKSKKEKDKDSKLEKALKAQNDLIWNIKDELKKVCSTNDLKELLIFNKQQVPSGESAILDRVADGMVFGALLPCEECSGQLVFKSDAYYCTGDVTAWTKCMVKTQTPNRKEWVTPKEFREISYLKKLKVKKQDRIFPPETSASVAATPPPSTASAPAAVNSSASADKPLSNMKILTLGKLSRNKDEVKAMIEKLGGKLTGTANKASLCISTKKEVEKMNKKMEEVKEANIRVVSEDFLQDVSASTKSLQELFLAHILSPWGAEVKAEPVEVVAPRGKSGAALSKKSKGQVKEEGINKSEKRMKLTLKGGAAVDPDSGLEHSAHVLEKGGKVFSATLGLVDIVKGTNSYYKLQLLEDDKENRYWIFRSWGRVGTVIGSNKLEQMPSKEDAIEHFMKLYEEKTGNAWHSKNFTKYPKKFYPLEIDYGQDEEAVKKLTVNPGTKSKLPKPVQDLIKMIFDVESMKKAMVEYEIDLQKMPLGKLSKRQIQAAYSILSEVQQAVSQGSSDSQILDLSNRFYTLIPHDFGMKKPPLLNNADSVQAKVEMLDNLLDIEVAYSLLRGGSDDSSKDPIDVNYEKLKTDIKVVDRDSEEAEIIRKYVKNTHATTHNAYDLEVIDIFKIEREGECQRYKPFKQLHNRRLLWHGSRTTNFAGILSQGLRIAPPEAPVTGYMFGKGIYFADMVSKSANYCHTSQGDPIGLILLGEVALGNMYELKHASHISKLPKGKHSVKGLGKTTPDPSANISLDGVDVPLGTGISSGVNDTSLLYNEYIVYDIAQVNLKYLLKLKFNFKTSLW

PARP1 [2] = target: T1, PARP1; conditions: solution; Pivazyan, 1992; cited from earlier work
Target sequence in this assay (P09874 whole entry, species assumed): as the sequence (P09874 whole entry) above

[3] = test system: Calu-6, a human lung carcinoma cell line; test: 14-day culture of neoplastic cells with HAT, morphology and cell number (FIG. 2); type: cell-based; conditions: Calu-6, 10 micromolar, 14 days in culture (more than 300 without drug)
Source text: (§1) FIGS. 2A-D illustrate HAT-Pi effects on two neoplastic cell lines; a) Calu-6, a human lung carcinoma cell line; and, b) DU-145, a human prostate metastatic carcinoma cell line.
(§2) Additionally, the overall appearance of the cultures and the morphology of the surviving cells is altered in specific ways. First, the remaining (surviving) cells are tightly adherent to the surface of the culture dish giving them a “flattened” appearance. Second, neoplastic cell expansion is attributable to cytoplasmic growth, which leaves the smaller internal cell nuclei distinctive in outline. Third, many cell outlines are “ruffled” in some regions due to the presence of lamellipodia, plasmalemma projections that are the leading edges of cell expansion (open arrows in FIGS. 2B and 2D). Fourth, specialized cell-cell contact and communication regions are evident where the lamellipodia of two or more cells meet (closed arrows in FIGS. 2B and 2D). […] These characteristic features of HAT-treated neoplastic cells indicate that substrate-attachment-dependent survival and contact inhibition have both been restored in surviving neoplastic cells. […]

[4] = test system: DU-145, a human prostate metastatic carcinoma cell line; test: as above; type: cell-based; conditions: DU-145, 10 micromolar, 14 days in culture (more than 300 without drug)
Source text: as §1, §2

PARP1 [5] = target: T1, PARP1; set-up: isolated HeLa cell nuclei; endogenous in cells; host or cells: isolated HeLa cell nuclei; conditions: 50 mM; Filetti, 1981; cited from earlier work
Target sequence in this assay (P09874 whole entry): as above

PARP1 [6] = target: T1, PARP1; set-up: isolated HeLa cell nuclei; endogenous in cells; host or cells: isolated HeLa cell nuclei; conditions: 1 mM; Preiss, 1971; cited from earlier work
Target sequence in this assay (P09874 whole entry): as above

PARP1 [7] = target: T2, PARP1 (Mus musculus, UniProt P11103); conditions: cultured 10T1/2 cells; Rankin, 1989; cited from earlier work
T2 construct: solution/cultured 10T1/2 cells; endogenous in cells; host or cells: cultured 10T1/2 cells
T2 sequence (P11103 whole entry): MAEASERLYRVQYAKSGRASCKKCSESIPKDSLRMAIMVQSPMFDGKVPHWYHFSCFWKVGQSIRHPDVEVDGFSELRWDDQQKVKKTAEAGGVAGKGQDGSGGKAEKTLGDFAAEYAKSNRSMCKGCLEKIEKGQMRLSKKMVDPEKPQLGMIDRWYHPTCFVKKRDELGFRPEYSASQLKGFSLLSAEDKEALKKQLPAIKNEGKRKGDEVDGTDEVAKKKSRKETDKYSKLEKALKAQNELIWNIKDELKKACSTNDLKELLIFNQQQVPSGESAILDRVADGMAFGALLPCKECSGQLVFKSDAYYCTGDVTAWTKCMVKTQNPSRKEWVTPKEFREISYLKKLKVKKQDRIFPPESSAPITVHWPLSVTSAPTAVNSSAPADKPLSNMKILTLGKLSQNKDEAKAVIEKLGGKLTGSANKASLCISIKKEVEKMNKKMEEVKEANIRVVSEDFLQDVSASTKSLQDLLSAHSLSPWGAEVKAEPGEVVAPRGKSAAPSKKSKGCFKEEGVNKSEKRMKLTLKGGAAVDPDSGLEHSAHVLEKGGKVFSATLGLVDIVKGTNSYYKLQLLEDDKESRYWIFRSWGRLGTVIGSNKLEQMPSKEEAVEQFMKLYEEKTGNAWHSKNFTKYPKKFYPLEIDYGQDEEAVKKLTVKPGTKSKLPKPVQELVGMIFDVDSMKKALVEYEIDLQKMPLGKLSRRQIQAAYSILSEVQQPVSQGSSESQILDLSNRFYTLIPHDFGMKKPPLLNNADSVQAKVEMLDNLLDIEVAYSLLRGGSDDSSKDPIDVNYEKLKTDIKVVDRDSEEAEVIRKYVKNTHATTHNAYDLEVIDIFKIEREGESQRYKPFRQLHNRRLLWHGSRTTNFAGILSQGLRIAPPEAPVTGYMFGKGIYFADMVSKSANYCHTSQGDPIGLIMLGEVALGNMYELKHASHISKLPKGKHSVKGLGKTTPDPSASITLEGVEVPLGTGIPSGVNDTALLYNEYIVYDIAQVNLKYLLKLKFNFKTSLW

Unresectable Sarcoma = conditions: trial e, 1987, 5 patients, dose 1.3, iv, with radiation, multiple cycles up to 5 months; cited from earlier work
PARP1 [8] = conditions: solution; Rankin, 1989; cited from earlier work
[9] = after infusion of bromodeoxyuridine or iododeoxyuridine; cited from earlier work
PARP1 [10] = target: T1, PARP1; conditions: cited from earlier work
Target sequence in this assay (P09874 whole entry, species assumed): as the sequence (P09874 whole entry) above

[11] = cited from earlier work
HeLa cells = conditions: cell culture; Sumikawa 2005; cited from earlier work
[12] = schedule A, single oral dose 2.40 Grams IPdR per M^2/day
[13] = schedule B, single oral dose 1.20 Grams IPdR per M^2/day
[14] = schedule C, single oral dose 0.60 Grams IPdR per M^2/day
[15] = schedule D, single oral dose 0.30 Grams IPdR per M^2/day
[16] = schedule E, single oral dose 0.15 Grams IPdR per M^2/day

- mode of inhibition (PARP1 [1]; Lineweaver-Burk plot, lines intersect vertical axis at control point): in competition with the substrate
Compound: NC(=O)c1cccc(N)c1 [3-amino-benzamide]

- Ki (PARP1 [1]; intercept of Lineweaver-Burk plot, 50 micromolar inhibitor, pH 7.3, read-out: inhibition constant): 10 to 30 µM
Compound: O=c1[nH]c(=O)n([C@H]2C[C@H](O)[C@@H](CO)O2)cc1Br [Bromodeoxyuridine, 5-bromodeoxyuridine]
- Ki (PARP1 [2]): 35 µM
- total number of cells per field [3]: < 50 cells per field
- total number of cells per field [4]: < 50 cells per field
- reported HAT inhibitory effect (PARP1 [5]): 50 mM blocks hormone sensitization
- reported HAT inhibitory effect: inhibition (PARP1 [6]): 1 mM = 97% inhibition
- IC50 (PARP1 [7]): 57 µM
- objective improvement (Unresectable Sarcoma): 20%
- subjective improvement (Unresectable Sarcoma): 20%
- IC50 (PARP1 [8]): 15 µM

Compound: O=c1[nH]cc(Br)c(=O)[nH]1 [Bromouracil, 5-bromouracil]
- catabolite concentration accumulated in patient plasma [9]: ~100 µM
- inhibition of PARP1 enzymatic activity (PARP1 [10]): demonstrated capacity to inhibit PARP1 enzymatic activity

Compound: O=c1ncc(I)cn1[C@H]1C[C@H](O)[C@@H](CO)O1 [IPdR, 5-iodo-2-pyrimidinone-2′-deoxyribose]
- IU AUC [11, 12]: 1057.8 µM·h
- IdU AUC [11, 12]: 12.2 µM·h
- [IU] plasma (iodouracil), average maximum concentration [11, 12]: 133 µM
- [IdU] plasma, average maximum concentration [11, 12]: 4.0 µM
- IU AUC [11, 13]: 102.7 µM·h
- IdU AUC [11, 13]: 4.7 µM·h
- [IU] plasma (iodouracil), average maximum concentration [11, 13]: 34.2 µM
- [IdU] plasma, average maximum concentration [11, 13]: 2.1 µM
- IU AUC [11, 14]: 17.2 µM·h
- IdU AUC [11, 14]: 3.2 µM·h
- [IU] plasma (iodouracil), average maximum concentration [11, 14]: 4.5 µM
- [IdU] plasma, average maximum concentration [11, 14]: 1.8 µM
- IU AUC [11, 15]: 4.5 µM·h
- IdU AUC [11, 15]: 0.3 µM·h
- [IU] plasma (iodouracil), average maximum concentration [11, 15]: 0.8 µM
- [IdU] plasma, average maximum concentration [11, 15]: 0.3 µM
- IU AUC [11, 16]: 1.0 µM·h
- IdU AUC [11, 16]: 1.7 µM·h
- [IU] plasma (iodouracil), average maximum concentration [11, 16]: 0.2 µM
- [IdU] plasma, average maximum concentration [11, 16]: 0.8 µM
- time to average peak concentration of iododeoxyuridine in patient plasma ([11]; single oral dose of IPdR): ≤ 2 h

Compound: O=c1[nH]cc(I)c(=O)[nH]1 [Iodouracil, 5-iodouracil]
- catabolite concentration accumulated in patient plasma [9]: ~100 µM
- inhibition of PARP1 enzymatic activity (PARP1 [10]): demonstrated capacity to inhibit PARP1 enzymatic activity

Compound: Cc1cn([C@H]2C[C@H](O)[C@@H](CO)O2)c(=O)[nH]c1=O [Thymidine, thymidine]
- concentration that induces HeLa cells to attach, flatten and undergo cell death and disintegration (HeLa cells): > 1.0 millimolar
